Data published in ChEMBL document CHEMBL1143372, “Synthesis of Pro-Xylane: a new biologically active C-glycoside in aqueous media” (2009).

Tests used:
Type in all cases: functional, Homo sapiens
NHDF [1] = experiment: Antiaging activity in NHDF assessed as D-[6-H3]-glucosamine incorporation into glycosaminoglycan fraction at 2 mM after 72 hrs relative to control
NHDF [2] = experiment: Antiaging activity in NHDF assessed as D-[6-H3]-glucosamine incorporation into glycosaminoglycan fraction at 0.4 mM after 72 hrs relative to control
NHDF [3] = experiment: Antiaging activity in NHDF assessed as D-[6-H3]-glucosamine incorporation into glycosaminoglycan fraction at 10 mM after 72 hrs relative to control
NHDF [4] = experiment: Antiaging activity in NHDF assessed as D-[6-H3]-glucosamine incorporation into glycosaminoglycan fraction at 3 mM after 72 hrs relative to control
NHDF [5] = experiment: Antiaging activity in NHDF assessed as D-[6-H3]-glucosamine incorporation into glycosaminoglycan fraction at 1 mM after 72 hrs relative to control
NHDF [6] = experiment: Antiaging activity in NHDF assessed as D-[6-H3]-glucosamine incorporation into glycosaminoglycan fraction at 0.3 mM after 72 hrs relative to control
NHDF [7] = experiment: Antiaging activity in NHDF assessed as D-[6-H3]-glucosamine incorporation into glycosaminoglycan fraction at 0.1 mM after 72 hrs relative to control
NHDF [8] = experiment: Antiaging activity in NHDF assessed as D-[6-H3]-glucosamine incorporation into glycosaminoglycan fraction at 0.08 mM after 72 hrs relative to control
NHDF [9] = experiment: Antiaging activity in NHDF assessed as D-[6-H3]-glucosamine incorporation into glycosaminoglycan fraction at 0.02 mM after 72 hrs relative to control
NHDF [10] = experiment: Antiaging activity in NHDF assessed as D-[6-H3]-glucosamine incorporation into glycosaminoglycan fraction at 0.5 mM after 72 hrs relative to control

Compound: CC(=O)C[C@@H]1OC[C@@H](O)[C@H](O)[C@H]1O
- Activity (NHDF [1]): 141%
- Activity (NHDF [2]): 110%
- Activity (NHDF [3]): 161%

Compound: CC(=O)C[C@@H]1O[C@H](CO)[C@H](O)[C@H](O)[C@H]1O
- Activity (NHDF [3]): 99%
- Activity (NHDF [4]): 119%
- Activity (NHDF [5]): 136%

Compound: CC(O)C[C@@H]1OC[C@@H](O)[C@H](O)[C@H]1O (stereo partly drawn)
- Activity (NHDF [4]): 218%
- Activity (NHDF [6]): 139%
- Activity (NHDF [5]): 169%

Compound: O=C(C[C@@H]1OC[C@@H](O)[C@H](O)[C@H]1O)c1ccccc1
- Activity (NHDF [7]): 120%
- Activity (NHDF [6]): 102%
- Activity (NHDF [5]): 95%

Compound: O[C@@H]1[C@H](O)[C@@H](O)OC[C@H]1O [LYXOSE]
- Activity (NHDF [1]): 86%
- Activity (NHDF [2]): 102%
- Activity (NHDF [8]): 90%

Compound: O=C[C@H](O)[C@@H](O)[C@H](O)CO [XYLOSE]
- Activity (NHDF [7]): 85%
- Activity (NHDF [9]): 106%
- Activity (NHDF [10]): 52%
